Key:
Experiment in all cases: competitive native PAGE, 2a staining
Details in all cases: 100 mM KCl; TBE; 100 μM competitor with 20 μM c-MYC Pu22; 5 μM 2a
[1] = system: TBA (DNA, G4) GGTTGGTGTGGTTGG
[2] = system: GC-rich ds-DNA (DNA, duplex) TGAGGGTGGGTAGGGTGGGTAA/TTACCCACCCTACCCACCCTCA
[3] = system: s.c. ds-DNA (DNA, duplex) CAATCGGATCGAATTCGATCCGATTG

Measured: binding

CCN(CC)c1ccc2cc(C(=N)N)c(=O)oc2c1
no: all assays above
